From paper PMC4256409, “Role of Phenylalanine and Valine^10 Residues in the Antimicrobial Activity and Cytotoxicity of Piscidin-1” (PLoS ONE, 2014)
Where no end group is shown, it is not given here.

Tests used:
E. coli KCTC1682 = format: cell-based, Escherichia coli; settings: E. coli KCTC1682; broth microdilution, 37°C, 16 h; three independent experiments in triplicate, SD 14.0%
E.coli KCTC2571 = format: cell-based, Escherichia coli; settings: E.coli KCTC2571; broth microdilution, 37°C, 16 h; three independent experiments in triplicate, SD 14.0%
P. aeruginosa KCTC1637 = format: cell-based, Pseudomonas aeruginosa; settings: P. aeruginosa KCTC1637; broth microdilution, 37°C, 16 h; three independent experiments in triplicate, SD 14.0%
B. subtilis KCTC1021 = format: cell-based, Bacillus subtilis; settings: B. subtilis KCTC1021; broth microdilution, 37°C, 16 h; three independent experiments in triplicate, SD 14.0%
MRSA CCARM 3108 = format: cell-based, Methicillin-resistant S. aureus; settings: MRSA CCARM 3108; broth microdilution, 37°C, 16 h; three independent experiments in triplicate, SD 14.0%
MDRST CCARM 8003 = format: cell-based, multidrug-resistant S. typhimurium; settings: broth microdilution, 37°C, 16 h, three independent experiments in triplicate, SD 14.0%
MDRST CCARM 8007 = format: cell-based, multidrug-resistant S. typhimurium; settings: broth microdilution, 37°C, 16 h, three independent experiments in triplicate, SD 14.0%
MDREC CCARM 1238 = format: cell-based, multidrug-resistant E. coli; settings: broth microdilution, 37°C, 16 h, three independent experiments in triplicate, SD 14.0%
MDRAB CCARM 12005 = format: cell-based, multidrug-resistant Acinetobacter baumanii; settings: broth microdilution, 37°C, 16 h, three independent experiments in triplicate, SD 14.0%
MDRAB CCARM 12036 = format: cell-based, multidrug-resistant Acinetobacter baumanii; settings: broth microdilution, 37°C, 16 h, three independent experiments in triplicate, SD 14.0%
[1] = test system: Drug-resistant bacterial strains; settings: average over the 18 drug-resistant bacterial strains of Table 3
From the text: Escherichia coli KCTC 1682, E. coli KCTC 2593, E. coli KCTC 2571, Salmonella typhimurium KCTC 1926, Pseudomonas aeruginosa KCTC 1637, P. aeruginosa KCTC 2004, P. aeruginosa KCTC 2513, Bacillus subtilis KCTC 3068, B. subtilis KCTC 1021, B. subtilis KCTC 1022, Staphylococcus epidermidis KCTC 1917, Staphylococcus aureus KCTC 1621, S. aureus KCTC 1916, and S. aureus KCTC 3881 were purchased from the Korean Collection for Type Cultures, Korea Research Institute of Bioscience & Biotechnology (Taejon, Korea). Methicillin-resistant S. aureus (MRSA) (CCARM 3089, CCARM 3090, CCARM 3108, CCARM 3114, and CCARM 3126), multidrug-resistant E. coli (MDREC) (CCARM 1229 and CCARM 1238), multidrug-resistant S. typhimurium (MDRST) (CCARM 8003, CCARM 8007, and CCARM 8009), multidrug-resistant Acinetobacter baumanii (MDRAB) (CCARM 12005, CCARM 12035, CCARM 12036, CCARM 12037), and multidrug-resistant P. aeruginosa (MDRPA) (CCARM 2002, CCARM 2003, CCARM 2095, and CCARM 2163) were obtained from the Culture Collection of Antibiotic-Resistant Microbes (CCARM) at Seoul Women’s University in Korea. The antimicrobial activities of the peptides against selected organisms, including three Gram-positive, three Gram-negative, and five antibiotic-resistant bacteria, were determined using a broth microdilution assay. Briefly, single colonies of bacteria and fungi were inoculated into Luria-Bertani (LB) medium and cultured overnight at 37°C. An aliquot of the culture was transferred to 10 mL of fresh LB and incubated for an additional 3–5 h at 37°C until it reached the mid-logarithmic phase. Two-fold serial dilutions of the peptides in 1% peptone were prepared. The serial dilutions (100 µL) were added to 100 µL of cells (2×10^6 colony-forming units (CFU)/mL) in 96-well microtiter plates and incubated at 37°C for 16 h. […] MIC values were calculated as the average of triplicate measurements from three independent assays.

Q: How did the MIC (E. coli KCTC1682) turn out when “FFHHIFRGIVHVGKTIHRLVTG [Pis-1, reference compound]” was run?
A: 1.0 µM

Q: And the MIC (E.coli KCTC2571)?
A: 1.0 µM

Q: And the MIC (P. aeruginosa KCTC1637)?
A: 2.0 µM

Q: And the MIC (B. subtilis KCTC1021)?
A: 2.0 µM

Q: And the MIC (MRSA CCARM 3108)?
A: 4.0 µM

Q: What about the MIC (MDRST CCARM 8003) of the same sequence?
A: 4.0 µM

Q: And the MIC (MDRST CCARM 8007)?
A: 4.0 µM

Q: What about the MIC (MDREC CCARM 1238) of the same sequence?
A: 4.0 µM

Q: What about the MIC (MDRAB CCARM 12005) of the same sequence?
A: 2.0 µM

Q: What about the MIC (MDRAB CCARM 12036) of the same sequence?
A: 2.0 µM

Q: What about the “Average MIC” value [1] of the same sequence?
A: 3.6 µM
